Experimental data published in ChEMBL document CHEMBL1152842, “Synthesis, Raman, FT-IR, NMR spectroscopic data and antimicrobial activity of mixed aza-oxo-thia macrocyclic compounds” (2009).

Columns and labels:
Type in all cases: functional
[1] = system: Candida albicans; assay: Antifungal activity against Candida albicans ATCC 10231 at 10 ug after 72 hrs by disk diffusion method; settings: ATCC 10231, 72 h, read-out: IZ
[2] = system: Kluyveromyces marxianus; assay: Antifungal activity against Kluyveromyces fragilis NRRL 2415 at 10 ug after 72 hrs by disk diffusion method; settings: NRRL 2415, 72 h, read-out: IZ
[3] = system: Hanseniaspora guilliermondii; assay: Antifungal activity against Hanseniaspora guilliermondii DSM 3432 at 10 ug after 72 hrs by disk diffusion method; settings: DSM 3432, 72 h, read-out: IZ
[4] = system: Rhodotorula mucilaginosa; assay: Antifungal activity against Rhodotorula rubra DSM 70403 at 10 ug after 72 hrs by disk diffusion method; settings: DSM 70403, 72 h, read-out: IZ
[5] = system: Debaryomyces hansenii; assay: Antifungal activity against Debaryomyces hansenii DSM 70238 at 10 ug after 72 hrs by disk diffusion method; settings: DSM 70238, 72 h, read-out: IZ
[6] = system: Debaryomyces hansenii; assay: Antifungal activity against Debaryomyces hansenii DSM 70238 at 1 ug after 72 hrs by disk diffusion method; settings: DSM 70238, 72 h, read-out: IZ
[7] = system: Hanseniaspora guilliermondii; assay: Antifungal activity against Hanseniaspora guilliermondii DSM 3432 at 1 ug after 72 hrs by disk diffusion method; settings: DSM 3432, 72 h, read-out: IZ
[8] = system: Candida albicans; assay: Antifungal activity against Candida albicans ATCC 10231 at 1 ug after 72 hrs by disk diffusion method; settings: ATCC 10231, 72 h, read-out: IZ
[9] = system: Rhodotorula mucilaginosa; assay: Antifungal activity against Rhodotorula rubra DSM 70403 at 1 ug after 72 hrs by disk diffusion method; settings: DSM 70403, 72 h, read-out: IZ
[10] = system: Kluyveromyces marxianus; assay: Antifungal activity against Kluyveromyces fragilis NRRL 2415 at 1 ug after 72 hrs by disk diffusion method; settings: NRRL 2415, 72 h, read-out: IZ

Clc1ccccc1C(c1ccccc1)(c1ccccc1)n1ccnc1 [CLOTRIMAZOLE]
zone of inhibition at 10 µg/disc [1]: 18 mm
zone of inhibition at 10 µg/disc [2]: 16 mm
zone of inhibition at 10 µg/disc [3]: 22 mm
zone of inhibition at 10 µg/disc [4]: 15 mm
zone of inhibition at 10 µg/disc [5]: 18 mm

CC(=O)N1CCN(c2ccc(OCC3COC(Cn4ccnc4)(c4ccc(Cl)cc4Cl)O3)cc2)CC1 (stereo not given) [KETOCONAZOLE]
zone of inhibition at 1 µg/disc [6]: 14 mm
zone of inhibition at 1 µg/disc [7]: 24 mm
zone of inhibition at 1 µg/disc [8]: 16 mm
zone of inhibition at 1 µg/disc [9]: 21 mm
zone of inhibition at 1 µg/disc [10]: 22 mm
